Experimental data reported in patent US9896512B2, “Antitumor peptide derived from a complementarity determining region of a humanized monoclonal antibody to NAP12B transporter” (Recepta Biopharma S.A., priority 2010, dated 2018).
Positions of bridges follow the written chain, without caps; N, C: chain ends. Non-standard residues stand in square brackets, D forms with d. No end group written: not given here. dCit = NC(=O)NCCC[C@@H](N)C(=O)O

Tests used:
tumor cells = experiment: Antitumor activity of RebMab 200 CDR peptides; format: cell-based
Text: (§1) Details of the in vitro tumor cell growth, cytotoxicity tests, determination of viable cells and in vivo protection experiments with B16F10 cells in a mouse metastatic model are described in Polonelli et al. (PLoS One. 3(6):e2371, 2008) and Dobroff et al. (Translat. Onc., 3: 204-217, 2010).
Amidated RebMab 200 CDR H2 (SEQ ID NO: 7) shares up to sixteen (16) identical amino acids with similar H2 fragments from several murine antibodies of various specificities.

[1] = tested on: B16F10-Nex2 melanoma cells; experiment: In vivo protection against lung colonization (metastatic melanoma model); design: species or system C57B1/6 mice; conditions: 250 μg i.p. on days 1, 3, 5, 7, 9, 11; lungs after 22 days
Experimental: as §1
Peptides RB9 and RB10 along with the apoptotic peptide A4H3, a true microantibody of cytotoxic anti-melanoma mAb (A4) (Dobroff et al., Translat. Onc., 3: 204-217, 2010), were tested for their protective effects against lung colonization by B16F10-Nex2 melanoma cells (2×105) injected intravenously in C57B1/6 mice (6 animals/group). Peptides were intraperitoneally administered (250 μg i.p.) on days 1, 3, 5, 7, 9, 11 after tumor cell challenge. Lungs of peptide-treated animals are shown in FIG. 5 after 22 days of tumor challenge. As noticed, peptide treatment was interrupted 10 days before animal sacrifice.
In vivo protection by peptides RB9 and RB10 (and A4H3 control) against lung colonization by B16F10-Nex2 melanoma cells (2×105) injected intravenously in C57B1/6 mice (6 animals/group) is shown in FIG. 6. The other 5 CDRs of RebMab200 (SEQ ID NOs: 7, 10, 11, 12, 13) were unprotective in vivo. Peptides were administered in the same way as described above, and the number of lung nodules was determined.

[2] = tested on: B16F10-Nex2 melanoma cells; experiment: Cell migration, wound healing assay; format: cell-based, murine; conditions: peptide 500 μM, 24 hours after wounding
Experimental: For the migration studies, 5×10^5 or 10^6 cells were distributed on 6-well plates and let them to adhere for 2 hours at 37° C./5% CO2. The culture medium was changed and the peptide was added at 500 μM overnight. The cell monolayer was “wounded” with a P1000 tip and incubated for 24 hours. Images of untreated cells (control) and peptide treated cells were captured with a JENOPTIK camera. Cell numbers (nuclei) were determined using the Pixcavator software version 5.0.
Viable B16F10-Nex2 cells (5×105)/well were distributed on a 6-well culture plate and incubated overnight at 37° C. in a humidified chamber with 5% CO2. A P1000 tip was used for wounding the cell monolayer and the image was immediately captured (0 hour) using a camera (Jenoptik) with the software Progres 2.8. After 24 hours a new image of the same field was obtained and recorded (24 hours).
Viable B16F10-Nex2 cells (3×10^5)/well were distributed in a 12-well culture plate and incubated for 4 hours at 37° C. in a humidified chamber with 5% CO2. Fresh medium containing RB10 (SEQ ID NO: 9) at different concentrations was added to the wells and incubated again for 4 hours. The monolayer wounding was performed as described above in Example 12, and images obtained accordingly. After 24 hours a new image in the same field was obtained and recorded (24 hours). […] Magnification ×100.

[3] = tested on: melanoma B16F10-Nex2 cells; experiment: Alanine scanning series cell adhesion assay (MTT after trypsin-EDTA); format: cell-based, murine; conditions: 1 mM peptide, 24 hours
Experimental: The peptide RB10 (SEQ ID NO: 9) was engineered to replace each amino acid by alanine using Ala-scan methodology, and thus help evaluate the role of each amino acid on biological effect, specifically on the hyper-adherence observed with 1 mM peptide.
For this purpose, viable melanoma B16F10-Nex2 cells (1×10^4)/well were distributed on a 96-well culture plate and incubated for 4 hours. Fresh media containing 1 mM of the alanine-scanning series for RB10 was added and incubated for 24 hours. Treated cells were detached with 30 μl/well of trypsin-EDTA for five minutes at 37° C. and gently washed with PBS. Cells were incubated for 4 hours with 0.5 mg/mL of MTT [3-(4,5-Dimethylthiazol-2-yl)-2,5-diphenyltetrazolium bromide] in fresh media and the formazan crystals were solubilized adding 1 volume of a 10% SDS solution overnight. Intensity was measured using a plate reader at 570 nm. […] The 100% value for each peptide represented the treated cells that had not been trypsinized.

Substance | antitumor activity (tumor cells) | protection against lung colonization (lung nodules) [1] | inhibition of cell migration (words) [2] | trypsin/EDTA-resistant cell adherence [3]
GYTFTGYNIH-NH2 [RB11] | no antitumor activity | unprotective | – | –
QQYSKLPLT-NH2 [RB14] | no antitumor activity | unprotective | – | –
CARGETA(dCit)AT(dF)AYWGQ(dA)-NH2 (CARGETA[dCit]AT[dF]AYWGQ[dA]-NH2; N-terminus assumed; SMILES C[C@H](NC(=O)[C@@H](NC(=O)[C@H](CCC(=O)O)NC(=O)CNC(=O)[C@H](CCCNC(=N)N)NC(=O)[C@H](C)NC(=O)[C@@H](N)CS)[C@@H](C)O)C(=O)N[C@H](CCCNC(N)=O)C(=O)N[C@@H](C)C(=O)N[C@H](C(=O)N[C@H](Cc1ccccc1)C(=O)N[C@@H](C)C(=O)N[C@@H](Cc1ccc(O)cc1)C(=O)N[C@@H](Cc1c[nH]c2ccccc12)C(=O)NCC(=O)N[C@@H](CCC(N)=O)C(=O)N[C@H](C)C(N)=O)[C@@H](C)O) [RB10 M1] | – | – | partial inhibition | –
C(dA)RGETA(dCit)AT(dF)AYWGQ(dA)C-NH2 (C[dA]RGETA[dCit]AT[dF]AYWGQ[dA]C-NH2; disulfide 1-18; N-terminus assumed; SMILES C[C@@H]1NC(=O)[C@H]([C@@H](C)O)NC(=O)[C@H](CCC(=O)O)NC(=O)CNC(=O)[C@H](CCCNC(=N)N)NC(=O)[C@@H](C)NC(=O)[C@@H](N)CSSC[C@@H](C(N)=O)NC(=O)[C@@H](C)NC(=O)[C@H](CCC(N)=O)NC(=O)CNC(=O)[C@H](Cc2c[nH]c3ccccc23)NC(=O)[C@H](Cc2ccc(O)cc2)NC(=O)[C@H](C)NC(=O)[C@@H](Cc2ccccc2)NC(=O)[C@H]([C@@H](C)O)NC(=O)[C@H](C)NC(=O)[C@@H](CCCNC(N)=O)NC1=O) [RB9 M2] | – | – | partial inhibition | –
CARGETA(dCit)ATFAYWGQGC-NH2 [RB9 M4] | – | – | partial inhibition | –
C(dA)RGETA(dCit)ATFAYWGQ(dA)-NH2 (C[dA]RGETA[dCit]ATFAYWGQ[dA]-NH2; N-terminus assumed; SMILES C[C@H](NC(=O)[C@H](Cc1ccccc1)NC(=O)[C@@H](NC(=O)[C@H](C)NC(=O)[C@@H](CCCNC(N)=O)NC(=O)[C@H](C)NC(=O)[C@@H](NC(=O)[C@H](CCC(=O)O)NC(=O)CNC(=O)[C@H](CCCNC(=N)N)NC(=O)[C@@H](C)NC(=O)[C@@H](N)CS)[C@@H](C)O)[C@@H](C)O)C(=O)N[C@@H](Cc1ccc(O)cc1)C(=O)N[C@@H](Cc1c[nH]c2ccccc12)C(=O)NCC(=O)N[C@@H](CCC(N)=O)C(=O)N[C@H](C)C(N)=O) [RB10 M4] | – | – | partial inhibition | –
CARAETARATFAYWGQG-NH2 [RB10 A4] | – | – | partial inhibition | high trypsin/EDTA-resistant cell adherence
YTSSLYS-NH2 [RB13] | no antitumor activity | unprotective | – | –
C(dA)RGETARATFAYWGQGC-NH2 [RB9 M5] | – | – | partial inhibition | –
CFIARAGWYATEARGGQC-NH2 [RB9 Sc3] | – | – | partial inhibition | –
CAAGETARATFAYWGQG-NH2 [RB10 A3] | – | – | partial inhibition | normally detached
SASQDIGNFLN-NH2 [RB12] | no antitumor activity | unprotective | – | –
CARGETAAATFAYWGQG-NH2 [RB10 A8] | – | – | partial inhibition | normally detached
CGTFEYRAQAGWAGRTA-NH2 [RB10 Scramble] | – | – | partial inhibition | –
AARGETARATFAYWGQG-NH2 [RB10 A1] | – | – | non-inhibition | normally detached
YWCRAAFTTEAGRACQGG-NH2 (disulfide 3-15; N-terminus assumed; SMILES C[C@@H]1NC(=O)[C@H](C)NC(=O)[C@H](CCCNC(=N)N)NC(=O)[C@@H](NC(=O)[C@H](Cc2c[nH]c3ccccc23)NC(=O)[C@@H](N)Cc2ccc(O)cc2)CSSC[C@@H](C(=O)N[C@@H](CCC(N)=O)C(=O)NCC(=O)NCC(N)=O)NC(=O)[C@H](C)NC(=O)[C@H](CCCNC(=N)N)NC(=O)CNC(=O)[C@H](C)NC(=O)[C@H](CCC(=O)O)NC(=O)[C@H]([C@@H](C)O)NC(=O)[C@H]([C@@H](C)O)NC(=O)[C@H](Cc2ccccc2)NC1=O) [RB9 Sc2] | – | – | partial inhibition | –
CARGATARATFAYWGQG-NH2 [RB10 A5] | – | – | – | normally detached
C(dA)RGETA(dCit)ATFAYWGQ(dA)C-NH2 (C[dA]RGETA[dCit]ATFAYWGQ[dA]C-NH2; disulfide 1-18; N-terminus assumed; SMILES C[C@@H]1NC(=O)[C@H](Cc2ccccc2)NC(=O)[C@H]([C@@H](C)O)NC(=O)[C@H](C)NC(=O)[C@@H](CCCNC(N)=O)NC(=O)[C@H](C)NC(=O)[C@H]([C@@H](C)O)NC(=O)[C@H](CCC(=O)O)NC(=O)CNC(=O)[C@H](CCCNC(=N)N)NC(=O)[C@@H](C)NC(=O)[C@@H](N)CSSC[C@@H](C(N)=O)NC(=O)[C@@H](C)NC(=O)[C@H](CCC(N)=O)NC(=O)CNC(=O)[C@H](Cc2c[nH]c3ccccc23)NC(=O)[C@H](Cc2ccc(O)cc2)NC1=O) [RB9 M1] | – | – | partial inhibition | –
CARGEAARATFAYWGQG-NH2 [RB10 A6] | – | – | partial inhibition | high trypsin/EDTA-resistant cell adherence
CGTFEYRAQAGWAGRTAC-NH2 (disulfide 1-18; N-terminus assumed; SMILES C[C@@H]1NC(=O)[C@H](Cc2c[nH]c3ccccc23)NC(=O)CNC(=O)[C@H](C)NC(=O)[C@H](CCC(N)=O)NC(=O)[C@H](C)NC(=O)[C@H](CCCNC(=N)N)NC(=O)[C@H](Cc2ccc(O)cc2)NC(=O)[C@H](CCC(=O)O)NC(=O)[C@H](Cc2ccccc2)NC(=O)[C@H]([C@@H](C)O)NC(=O)CNC(=O)[C@@H](N)CSSC[C@@H](C(N)=O)NC(=O)[C@H](C)NC(=O)[C@H]([C@@H](C)O)NC(=O)[C@H](CCCNC(=N)N)NC(=O)CNC1=O) [RB9 Scramble] | – | – | partial inhibition | –
C(dA)RGETARATFAYC-NH2 (C[dA]RGETARATFAYC-NH2; disulfide 1-14; N-terminus assumed; SMILES C[C@@H]1NC(=O)[C@H](CCCNC(=N)N)NC(=O)[C@H](C)NC(=O)[C@H]([C@@H](C)O)NC(=O)[C@H](CCC(=O)O)NC(=O)CNC(=O)[C@H](CCCNC(=N)N)NC(=O)[C@@H](C)NC(=O)[C@@H](N)CSSC[C@@H](C(N)=O)NC(=O)[C@H](Cc2ccc(O)cc2)NC(=O)[C@H](C)NC(=O)[C@H](Cc2ccccc2)NC(=O)[C@H]([C@@H](C)O)NC1=O) [RB9 M3] | – | – | partial inhibition | –
